Where two headings read alike, the source gives them in different places.
Tests used:
hNav1.7 = hNav1.7 (Homo sapiens (Human), UniProt Q15858); test: Electrophysiology (EP) assay, whole-cell patch clamp in hNav1.7 expressing HEK-293 cells; type: cell-based; settings: affinity for inactivated state of hNav1.7, HEK-293; read-out: Nav1.7 Activity (μM) EP assay Ki
Protocol: Cells Manual Electrophysiology: The hNav1.7 expressing HEK-293 cells are plated on 35 mm culture dishes pre-coated with poly-D-lysine in standard DMEM culture media (Mediatech, Inc., Herndon, Va.) and incubated in a 5% CO2 incubator at 37° C. Cultured cells are used approximately 12-48 hours after plating.
Cells Automated Electrophysiology: The hNav1.7 expressing HEK-293 cells are plated on tissue culture flasks in standard DMEM culture media (Mediatech, Inc.) and incubated in a 5% CO2 incubator at 37° C. Cultured cells are used approximately 12-48 hours after plating.
Manual Electrophysiology: On the day of experimentation, the 35 mm dish is placed on the stage of an inverted microscope equipped with a perfusion system that continuously perfuses the culture dish with fresh recording media. A gravity driven superfusion system is used to apply test solutions directly to the cell under evaluation. This “shooter” system consists of an array of glass pipettes connected to a motorized horizontal translator. The outlet of the shooter is positioned approximately 100 μm from the cell of interest.
Whole cell currents are recorded using the whole-cell patch clamp configuration using an Axopatch 200B amplifier (Axon Instruments, Foster City, Calif.), 1322A A/D converter (Axon Instruments) and pClamp software (v. 8; Axon Instruments) and stored on a personal computer. Gigaseals are formed and the whole-cell configuration is established in voltage clamp mode, and membrane currents generated by hNav1.7 channels are recorded. Borosilicate glass pipettes with resistance values between 1.5 and 2.0 MΩ when filled with pipette solution are used and series resistance (<5 MΩ) is compensated by 75-80%. Signals are sampled at 50 kHz and low pass filtered at 3 kHz.
Automated Electrophysiology: On the day of experimentation, cells are prepared by removing media and digesting with appropriate enzymes to suspend cells in external solution.
Whole cell currents are recorded using the whole-cell patch clamp configuration using an Patchliner (Nanion Technologies, Munich Germany), EPC 10 quadro amplifiers (HEKA, Bellmore, N.Y.) and PatchControl HT 10905 (Nanion Technologies) and PatchMaster v2x73 software (HEKA) and stored on a personal computer. Gigaseals are formed and the whole-cell configuration is established in voltage clamp mode, and membrane currents generated by hNav1.7 are recorded. NPC-16 chips have resistance values between 1.0 and 2.0 MΩ when filled with pipette solution and series resistance (<5 MΩ). Signals are sampled at 25 kHz and low pass filtered at 3 kHz.
Voltage protocols Manual Electrophysiology: After establishing the whole-cell configuration in voltage clamp mode, voltage protocols are run to establish the 1) test potential (Vmax), 2) holding potential (Vh), and 3) the conditioning potential for each cell.
After establishing the whole-cell configuration in voltage clamp mode, a standard I-V protocol is run to determine the potential at which the maximal current (Imax) is elicited. This potential is the test potential (Vt). To determine a conditioning potential at which 100% of channels are in the inactivated state, a standard steady-state inactivation (SSIN) protocol is run using a series of fifteen 100 ms-long depolarizing prepulses, incrementing in 10 mV steps, immediately followed by a 5 ms testing pulse to Vmax. This protocol also permits determination of the holding potential at which all channels are in the resting state.
For compounds causing significant retardation of recovery from inactivation, an estimate of the affinity for the inactivated state of the channel (Ki) is generated using the following protocol. From the negative, no residual inactivation, holding potential, the cell is depolarized to the conditioning voltage for 2-5 seconds, returned to the negative holding potential for 10-20 ms to relieve fast inactivation and then depolarized to the test potential for ˜15 ms. […]

human Nav1.7 = human Nav1.7 (Homo sapiens (Human), UniProt Q15858); test: FLIPR or FLIPR TETRA sodium dye assay with KCl and test article pre-incubation; type: cell-based
Chain of human Nav1.7 (Q15858 other isoform, or with tags, fused parts or gaps): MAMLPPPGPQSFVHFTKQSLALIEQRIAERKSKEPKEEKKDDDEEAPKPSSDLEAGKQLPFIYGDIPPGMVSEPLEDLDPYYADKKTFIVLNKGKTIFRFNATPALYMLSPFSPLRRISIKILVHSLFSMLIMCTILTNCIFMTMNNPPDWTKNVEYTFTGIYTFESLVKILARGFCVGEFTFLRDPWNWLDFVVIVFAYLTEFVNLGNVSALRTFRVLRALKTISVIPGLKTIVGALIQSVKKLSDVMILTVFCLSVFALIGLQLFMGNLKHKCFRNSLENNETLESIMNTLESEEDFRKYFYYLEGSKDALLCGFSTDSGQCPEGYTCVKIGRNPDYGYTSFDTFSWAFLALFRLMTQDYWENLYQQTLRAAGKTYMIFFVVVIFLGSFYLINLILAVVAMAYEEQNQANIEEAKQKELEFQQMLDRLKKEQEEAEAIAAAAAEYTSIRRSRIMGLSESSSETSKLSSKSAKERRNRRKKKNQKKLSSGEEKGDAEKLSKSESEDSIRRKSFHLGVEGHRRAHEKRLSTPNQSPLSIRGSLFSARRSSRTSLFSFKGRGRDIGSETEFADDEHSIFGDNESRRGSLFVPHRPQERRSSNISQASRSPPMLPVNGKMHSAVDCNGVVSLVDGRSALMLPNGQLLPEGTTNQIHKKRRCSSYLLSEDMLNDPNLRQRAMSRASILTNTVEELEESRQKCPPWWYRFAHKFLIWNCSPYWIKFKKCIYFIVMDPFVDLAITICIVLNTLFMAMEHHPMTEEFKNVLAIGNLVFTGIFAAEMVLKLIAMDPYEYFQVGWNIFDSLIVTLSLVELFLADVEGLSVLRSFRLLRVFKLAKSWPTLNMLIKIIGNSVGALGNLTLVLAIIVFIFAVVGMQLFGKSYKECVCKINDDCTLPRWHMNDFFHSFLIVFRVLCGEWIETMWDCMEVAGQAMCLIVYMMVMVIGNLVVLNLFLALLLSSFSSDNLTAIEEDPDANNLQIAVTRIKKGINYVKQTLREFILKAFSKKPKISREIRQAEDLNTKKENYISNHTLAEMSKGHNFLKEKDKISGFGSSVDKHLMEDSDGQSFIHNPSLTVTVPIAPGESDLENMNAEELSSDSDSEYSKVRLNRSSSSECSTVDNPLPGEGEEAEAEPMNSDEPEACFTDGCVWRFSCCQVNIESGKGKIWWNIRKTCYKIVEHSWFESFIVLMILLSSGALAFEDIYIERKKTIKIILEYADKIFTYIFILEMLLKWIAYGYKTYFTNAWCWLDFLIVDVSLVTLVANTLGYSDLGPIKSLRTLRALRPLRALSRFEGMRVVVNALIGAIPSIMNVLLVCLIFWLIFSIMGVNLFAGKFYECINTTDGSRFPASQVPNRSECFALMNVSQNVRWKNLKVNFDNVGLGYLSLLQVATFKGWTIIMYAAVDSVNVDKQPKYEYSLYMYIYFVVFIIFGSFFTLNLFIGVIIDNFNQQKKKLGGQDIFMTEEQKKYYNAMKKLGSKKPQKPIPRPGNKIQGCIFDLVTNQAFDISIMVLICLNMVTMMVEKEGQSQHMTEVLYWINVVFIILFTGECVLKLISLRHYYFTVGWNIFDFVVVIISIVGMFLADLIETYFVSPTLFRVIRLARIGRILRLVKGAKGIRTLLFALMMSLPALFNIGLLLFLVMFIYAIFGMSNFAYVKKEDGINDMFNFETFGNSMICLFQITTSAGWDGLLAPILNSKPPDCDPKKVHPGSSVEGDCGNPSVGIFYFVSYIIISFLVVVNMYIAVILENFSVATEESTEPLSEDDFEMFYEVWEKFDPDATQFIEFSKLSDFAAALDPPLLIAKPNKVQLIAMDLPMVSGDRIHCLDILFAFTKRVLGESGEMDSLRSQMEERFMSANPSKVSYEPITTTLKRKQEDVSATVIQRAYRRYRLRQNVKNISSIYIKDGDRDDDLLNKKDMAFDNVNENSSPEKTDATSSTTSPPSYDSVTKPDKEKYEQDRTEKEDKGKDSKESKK

[1] = recombinant human Nav1.7 in HEK293, veratridine + scorpion venom

Chain of hNav1.7 (Q15858 other isoform, or with tags, fused parts or gaps): as above

| SMILES | Ki (hNav1.7) [µM] | IC50 (human Nav1.7; [1]) [µM] | IC50 (human Nav1.7) [µM] |
| --- | --- | --- | --- |
| NC(=O)c1cc(CN[C@H]2CCNC2=O)nc(-c2ccc(Oc3ccc(C4CC4)cn3)cc2)n1 [Compound 14, (S)-2-(4-((5-cyclopropylpyridin-2-yl)oxy)phenyl)-6-(((2-oxopyrrolidin-3-yl)amino)-methyl)pyrimidine-4-carboxamide] | 1.41 ± 0.231 | 3.39 ± 1.15 |  |
| NC(=O)c1cc(CN[C@H]2CCNC2=O)nc(-c2ccc(Oc3ccc(Cl)cc3F)cc2)n1 [Compound 15] | 0.041 ± 0.006 | 0.065 ± 0.01 |  |
| NC(=O)c1cc(CN2CCC[C@H]2C(N)=O)nc(-c2ccc(Oc3ccc(C(F)(F)F)cc3)cc2)n1 [Compound 16, (S)-6-((2-carbamoylpyrrolidin-1-yl)methyl)-2-(4-(4-(trifluoro-methyl)phenoxy)phenyl)pyrimidine-4-carboxamide] |  | 0.085 ± 0.012 |  |
| NC(=O)c1cc(CN[C@H]2CCNC2=O)nc(-c2ccc(Oc3ccc(C(F)(F)F)cc3)cc2)n1 [Compound 20, (S)-6-(((2-oxopyrrolidin-3-yl)amino)methyl)-2-(4-(4-(trifluoromethyl)phenoxy)phenyl)pyrimidine-4-carboxamide] |  | 0.439 ± 0.023 |  |
| C[C@H](NCc1cc(C(N)=O)nc(-c2ccc(Oc3ccc(C(F)(F)F)cc3)cc2)n1)C(N)=O [Compound 21, (S)-6-(((1-amino-1-oxopropan-2-yl)amino)methyl)-2-(4-(4-(trifluoromethyl)phenoxy)phenyl)pyrimidine-4-carboxamide] |  | 0.042 ± 0.006 |  |
| CC(C)[C@H](NCc1cc(C(N)=O)nc(-c2ccc(Oc3ccc(C(F)(F)F)cc3)cc2)n1)C(N)=O [Compound 22, (S)-6-(((1-amino-3-methyl-1-oxobutan-2-yl)amino)methyl)-2-(4-(4-(trifluoromethyl)-phenoxy)phenyl)pyrimidine-4-carboxamide] | 0.22 ± 0.034 | 0.2 ± 0.045 |  |
| NC(=O)c1cc(CN[C@@H](CO)C(N)=O)nc(-c2ccc(Oc3ccc(C(F)(F)F)cc3)cc2)n1 [Compound 23, (S)-6-(((1-amino-3-hydroxy-1-oxopropan-2-yl)amino)methyl)-2-(4-(4-(trifluoromethyl)-phenoxy)phenyl)pyrimidine-4-carboxamide] | 0.145 ± 0.044 | 0.2 ± 0.045 |  |
| NC(=O)c1cc(CN2C[C@H](O)C[C@H]2C(N)=O)nc(-c2ccc(Oc3ccc(C(F)(F)F)cc3)cc2)n1 [Compound 24, 6-(((2S, 4R)-2-carbamoyl-4-hydroxypyrrolidin-1-yl)methyl)-2-(4-(4-(trifluoromethyl)-phenoxy)phenyl)pyrimidine-4-carboxamide] | 0.342 ± 0.095 | 0.583 ± 0.056 |  |
| NC(=O)c1cc(CN[C@H]2CCNC2=O)nc(-c2ccc(Oc3ccc(C(F)(F)F)cn3)cc2)n1 [Compound 26, (S)-6-(((2-oxopyrrolidin-3-yl)amino)methyl)-2-(4-((5-(trifluoromethyl)pyridin-2-yl)oxy)phenyl)pyrimidine-4-carboxamide] | 0.662 ± 0.13 | 1.75 ± 0.6 |  |
| NC(=O)c1cc(CN2CCNC(=O)C2)nc(-c2ccc(Oc3ccc(C(F)(F)F)cc3)cc2)n1 [Compound 27, 6-((3-oxopiperazin-1-yl)-methyl)-2-(4-(4-(trifluoro-methyl)phenoxy)phenyl)pyrimidine-4-carboxamide] | 0.08 ± 0.027 | 0.072 ± 0.008 |  |
| NC(=O)c1cc(CN2CCNC(=O)C2)nc(-c2ccc(Oc3ccc(C(F)(F)F)cn3)cc2)n1 [Compound 28, 6-((3-oxopiperazin-1-yl)-methyl)-2-(4-((5-(trifluoro-methyl)pyridin-2-yl)oxy)-phenyl)pyrimidine-4-carboxamide] |  |  | 2.45 ± 0.133 |
| O=C1NCC[C@@H]1NCc1cc([C@H](O)CO)nc(-c2ccc(Oc3ccc(OC(F)(F)F)cc3)cc2)n1 [Compound 40, (S)-3-(((6-((S)-1,2-dihydroxyethyl)-2-(4-(4-(trifluoromethoxy)phenoxy)phenyl)pyrimidin-4-yl)methyl)-amino)pyrrolidin-2-one] | 2.68 ± 0.206 | 1.55 ± 0.215 |  |
| O=C1CN(Cc2cc([C@H](O)CO)nc(-c3ccc(Oc4ccc(OC(F)(F)F)cc4)cc3)n2)CCN1 [Compound 41, (S)-4-((6-(1,2-dihydroxyethyl)-2-(4-(4-(trifluoromethoxy)-phenoxy)phenyl)pyrimidin-4-yl)methyl)piperazin-2-one] | 0.875 ± 0.167 |  | 1.19 ± 0.11 |
| NC(=O)c1cc(CO)nc(C2=CCC(Oc3ccc(C(F)(F)F)cc3)CC2)n1 (stereo not drawn) [Compound 54, 6-(hydroxymethyl)-2-(4-(4-(trifluoromethyl)phenoxy)cyclohex-1-en-1-yl)pyrimidine-4-carboxamide] |  | 0.242 ± 0.023 |  |
| NC(=O)c1cc(CN[C@@H]2CCNC2=O)nc(C2=CCC(Oc3ccc(C(F)(F)F)cc3)CC2)n1 (stereo partly drawn) [Compound 56, 6-((((R)-2-oxopyrrolidin-3-yl)amino)methyl)-2-(4-(4-(trifluoromethyl)phenoxy)cyclohex-1-en-1-yl)pyrimidine-4-carboxamide] | 0.117 ± 0.01 | 0.544 ± 0.062 |  |
| C[C@H](NCc1cc(C(N)=O)nc(C2=CCC(Oc3ccc(C(F)(F)F)cc3)CC2)n1)C(N)=O (stereo partly drawn) [Compound 57] | 0.175 ± 0.039 | 0.557 ± 0.049 |  |
| NC(=O)c1cc(CN[C@@H](CO)C(N)=O)nc(C2=CCC(Oc3ccc(C(F)(F)F)cc3)CC2)n1 (stereo partly drawn) [Compound 58, 6-((((S)-1-amino-3-hydroxy-1-oxopropan-2-yl)amino)-methyl)-2-(4-(4-(trifluoromethyl)-phenoxy)cyclohex-1-en-1-yl)pyrimidine-4-carboxamide] | 0.524 ± 0.161 | 1.47 ± 0.091 |  |
| NC(=O)c1cc(CN2CCNC(=O)C2)nc(C2=CCC(Oc3ccc(C(F)(F)F)cc3)CC2)n1 (stereo not drawn) [Compound 59, 6-((3-oxopiperazin-1-yl)-methyl)-2-(4-(4-(trifluoro-methyl)phenoxy)cyclohex-1-en-1-yl)pyrimidine-4-carboxamide] | 0.059 ± 0.018 |  | 0.07 ± 0.003 |
| CC1(C)C(=O)NCCN1Cc1cc(C(N)=O)nc(-c2ccc(Oc3ccc(C(F)(F)F)cn3)cc2)n1 [Compound 60, 6-((2,2-dimethyl-3-oxopiperazin-1-yl)methyl)-2-(4-((5-(trifluoromethyl)pyridin-2-yl)oxy)phenyl)pyrimidine-4-carboxamide] |  | > 20 |  |
| CC1(C)C(=O)NCCN1Cc1cc(C(N)=O)nc(-c2ccc(Oc3ccc(C(F)(F)F)cc3)cc2)n1 [Compound 61, 6-((2,2-dimethyl-3-oxopiperazin-1-yl)methyl)-2-(4-(4-(trifluoromethyl)phenoxy)-phenyl) pyrimidine-4-carboxamide] |  |  | 0.627 ± 0.022 |
| NC(=O)c1cc(CN2CC(=O)NC(=O)C2)nc(-c2ccc(Oc3ccc(C(F)(F)F)cc3)cc2)n1 [Compound 62, 6-((3,5-dioxopiperazin-1-yl)methyl)-2-(4-(4-(trifluoro-methyl)phenoxy)phenyl)pyrimidine-4-carboxamide] |  | 0.205 ± 0.006 |  |
| NC(=O)c1cc(CN2CC[C@@H](O)[C@H]2C(N)=O)nc(-c2ccc(Oc3ccc(C(F)(F)F)cc3)cc2)n1 [Compound 65, 6-(((2S,3R)-2-carbamoyl-3-hydroxypyrrolidin-1-yl)methyl)-2-(4-(4-(trifluoromethyl)-phenoxy)phenyl)pyrimidine-4-carboxamide] | 0.046 ± 0.009 | 0.094 ± 0.008 |  |
